Assay results as given in PMC11930985 (Nature Communications, 2025).
Entries after “also recorded” stand apart in the source; their conditions may differ. Like-named read-outs stand apart in the source and are kept apart here.

Tested on: AML/MDS patients
Conditions: for Fatal SAE: Adverse event / Fatal SAE: Grade / Fatal SAE: Relationship to Bemcentinib: per patient
Description: Safety assessments including standard clinical laboratory safety tests (hematology, biochemistry, coagulation, and urinalysis), physical examinations, vital signs (blood pressure, heart rate, respiration rate and temperature), and ECOG performance status were performed at baseline and throughout the study. Electrocardiograms were obtained at screening, Cycle 1 Day 1–4, 8, and 15, Cycle 2 Day 1, 8 and 15, at Day 1 of each cycle thereafter, (up to and including Cycle 15), and at Final Study Visit. QT prolongation was assessed using the Fridericia correction […] [34]. Severity of QTcF prolongation was defined as follows: Grade 1: maximum prolongation 450–480 ms; Grade 2: maximum prolongation 481-500 ms; Grade 3: ≥501 ms on at least two separate ECGs; Grade 4: ≥501 ms or >60 ms change from baseline, with Torsades de pointes, polymorphic ventricular tachycardia or signs/symptoms of serious arrythmia; Grade 5: Death.
Adverse events (AEs) were monitored starting at study enrolment until 28 days after end of treatment and graded according to the National Cancer Institute Common Terminology Criteria for Adverse Events (NCI-CTCAE) version 4.0. If drug-related toxicities continued beyond the follow-up period, patients were followed until all drug-related toxicities resolved to grade ≤1, stabilized or returned to baseline.

[1] = DE and LDAC cohorts combined (n = 72)

Nc1nc(Nc2ccc3c(c2)CC[C@@H](N2CCCC2)CC3)nn1-c1cc2c(nn1)-c1ccccc1CCC2 [Bemcentinib]
Fatal SAEs: cerebral hemorrhage [1]: 2 n | Fatal SAEs: pneumonia/fungal pneumonia [1]: 3 n | Fatal SAEs: sepsis/neutropenic sepsis [1]: 4 n | Fatal SAEs (DE cohort): 7 | Actinomyces test positive, number of events (E) (human, in vivo): 1 | Actinomyces test positive, patients affected (human, in vivo): 1 (2.8) n (%) | Anaemia, number of events (E) (human, in vivo): 4 | Anaemia, patients affected (human, in vivo): 4 (11.1) n (%) | Anxiety, number of events (E) (human, in vivo): 2 | Anxiety, patients affected (human, in vivo): 2 (5.6) n (%) | Back pain, number of events (E) (human, in vivo): 1 | Back pain, patients affected (human, in vivo): 1 (2.8) n (%) | Blood and lymphatic system disorders (System Organ Class), number of events (E) (human, in vivo): 26 | Blood and lymphatic system disorders (System Organ Class), patients affected (human, in vivo): 12 (33.3) n (%) | Cardiac disorders (System Organ Class), number of events (E) (human, in vivo): 10 | Cardiac disorders (System Organ Class), patients affected (human, in vivo): 4 (11.1) n (%) | Decreased appetite, number of events (E) (human, in vivo): 2 | Decreased appetite, patients affected (human, in vivo): 2 (5.6) n (%) | Dehydration, number of events (E) (human, in vivo): 1 | Dehydration, patients affected (human, in vivo): 1 (2.8) n (%) | Device related infection, number of events (E) (human, in vivo): 1 | Device related infection, patients affected (human, in vivo): 1 (2.8) n (%) | Diarrhoea, number of events (E) (human, in vivo): 6 | Diarrhoea, patients affected (human, in vivo): 3 (8.3) n (%) | Dysgeusia, number of events (E) (human, in vivo): 1 | Dysgeusia, patients affected (human, in vivo): 1 (2.8) n (%) | Dysphagia, number of events (E) (human, in vivo): 1 | Dysphagia, patients affected (human, in vivo): 1 (2.8) n (%) | Dyspnoea exertional, number of events (E) (human, in vivo): 1 | Dyspnoea exertional, patients affected (human, in vivo): 1 (2.8) n (%) | Dyspnoea, number of events (E) (human, in vivo): 1 | Dyspnoea, patients affected (human, in vivo): 1 (2.8) n (%) | Enterococcal bacteraemia, number of events (E) (human, in vivo): 1 | Enterococcal bacteraemia, patients affected (human, in vivo): 1 (2.8) n (%) | Enthesopathy, number of events (E) (human, in vivo): 1 | Enthesopathy, patients affected (human, in vivo): 1 (2.8) n (%) | Epistaxis, number of events (E) (human, in vivo): 2 | Epistaxis, patients affected (human, in vivo): 1 (2.8) n (%) | Fall, number of events (E) (human, in vivo): 1 | Fall, patients affected (human, in vivo): 1 (2.8) n (%) | Fatigue, number of events (E) (human, in vivo): 4 | Fatigue, patients affected (human, in vivo): 2 (5.6) n (%) | Gastrointestinal disorders (System Organ Class), number of events (E) (human, in vivo): 18 | Gastrointestinal disorders (System Organ Class), patients affected (human, in vivo): 12 (33.3) n (%) | General disorders and administration site conditions (System Organ Class), number of events (E) (human, in vivo): 8 | General disorders and administration site conditions (System Organ Class), patients affected (human, in vivo): 6 (16.7) n (%) | General physical health deterioration, number of events (E) (human, in vivo): 3 | General physical health deterioration, patients affected (human, in vivo): 3 (8.3) n (%) | Gingivitis, number of events (E) (human, in vivo): 1 | Gingivitis, patients affected (human, in vivo): 1 (2.8) n (%) | Haematuria, number of events (E) (human, in vivo): 1 | Haematuria, patients affected (human, in vivo): 1 (2.8) n (%) | Hyperglycaemia, number of events (E) (human, in vivo): 4 | Hyperglycaemia, patients affected (human, in vivo): 2 (5.6) n (%) | Hyperuricaemia, number of events (E) (human, in vivo): 2 | Hyperuricaemia, patients affected (human, in vivo): 2 (5.6) n (%) | Hypoglycaemia, number of events (E) (human, in vivo): 1 | Hypoglycaemia, patients affected (human, in vivo): 1 (2.8) n (%) | Hypokalaemia, number of events (E) (human, in vivo): 5 | Hypokalaemia, patients affected (human, in vivo): 5 (13.9) n (%) | Hyponatraemia, number of events (E) (human, in vivo): 2 | Hyponatraemia, patients affected (human, in vivo): 2 (5.6) n (%) | Hypophosphataemia, number of events (E) (human, in vivo): 3 | Hypophosphataemia, patients affected (human, in vivo): 3 (8.3) n (%) | Hypotension, number of events (E) (human, in vivo): 3 | Hypotension, patients affected (human, in vivo): 3 (8.3) n (%) | Hypoxia, number of events (E) (human, in vivo): 2 | Hypoxia, patients affected (human, in vivo): 2 (5.6) n (%) | Infection, number of events (E) (human, in vivo): 2 | Infection, patients affected (human, in vivo): 2 (5.6) n (%) | Infections and infestations (System Organ Class), number of events (E) (human, in vivo): 29 | Infections and infestations (System Organ Class), patients affected (human, in vivo): 23 (63.9) n (%) | Injury, poisoning and procedural complications (System Organ Class), number of events (E) (human, in vivo): 1 | Injury, poisoning and procedural complications (System Organ Class), patients affected (human, in vivo): 1 (2.8) n (%) | Investigations (System Organ Class), number of events (E) (human, in vivo): 8 | Investigations (System Organ Class), patients affected (human, in vivo): 7 (19.4) n (%) | Lactic acidosis, number of events (E) (human, in vivo): 1 | Lactic acidosis, patients affected (human, in vivo): 1 (2.8) n (%) | Leukocytosis, number of events (E) (human, in vivo): 1 | Leukocytosis, patients affected (human, in vivo): 1 (2.8) n (%) | Melaena, number of events (E) (human, in vivo): 1 | Melaena, patients affected (human, in vivo): 1 (2.8) n (%) | Mental status changes, number of events (E) (human, in vivo): 1 | Mental status changes, patients affected (human, in vivo): 1 (2.8) n (%) | Metabolism and nutrition disorders (System Organ Class), number of events (E) (human, in vivo): 21 | Metabolism and nutrition disorders (System Organ Class), patients affected (human, in vivo): 14 (38.9) n (%) | Musculoskeletal and connective tissue disorders (System Organ Class), number of events (E) (human, in vivo): 4 | Musculoskeletal and connective tissue disorders (System Organ Class), patients affected (human, in vivo): 2 (5.6) n (%) | Nausea, number of events (E) (human, in vivo): 3 | Nausea, patients affected (human, in vivo): 3 (8.3) n (%) | Nervous system disorders (System Organ Class), number of events (E) (human, in vivo): 3 | Nervous system disorders (System Organ Class), patients affected (human, in vivo): 3 (8.3) n (%) | Neutropenia, number of events (E) (human, in vivo): 3 | Neutropenia, patients affected (human, in vivo): 2 (5.6) n (%) | Number of TEAE, number of events (E) (human, in vivo): 148 | Number of TEAE, patients affected (human, in vivo): 35 (97.2) n (%) | Oesophagitis, number of events (E) (human, in vivo): 1 | Oesophagitis, patients affected (human, in vivo): 1 (2.8) n (%) | Osteitis, number of events (E) (human, in vivo): 1 | Osteitis, patients affected (human, in vivo): 1 (2.8) n (%) | Patients with dose interruptions due to adverse events (human, in vivo): 17 | Patients with dose reductions (human, in vivo): 3 | Pharyngitis, number of events (E) (human, in vivo): 1 | Pharyngitis, patients affected (human, in vivo): 1 (2.8) n (%) | Pneumonia, number of events (E) (human, in vivo): 8 | Pneumonia, patients affected (human, in vivo): 8 (22.2) n (%) | Psychiatric disorders (System Organ Class), number of events (E) (human, in vivo): 3 | Psychiatric disorders (System Organ Class), patients affected (human, in vivo): 3 (8.3) n (%) | Pulmonary congestion, number of events (E) (human, in vivo): 1 | Pulmonary congestion, patients affected (human, in vivo): 1 (2.8) n (%) | Rash erythematous, number of events (E) (human, in vivo): 1 | Rash erythematous, patients affected (human, in vivo): 1 (2.8) n (%) | Renal and urinary disorders (System Organ Class), number of events (E) (human, in vivo): 4 | Renal and urinary disorders (System Organ Class), patients affected (human, in vivo): 2 (5.6) n (%) | Respiratory failure, number of events (E) (human, in vivo): 1 | Respiratory failure, patients affected (human, in vivo): 1 (2.8) n (%) | Respiratory, thoracic and mediastinal disorders (System Organ Class), number of events (E) (human, in vivo): 9 | Respiratory, thoracic and mediastinal disorders (System Organ Class), patients affected (human, in vivo): 6 (16.7) n (%) | Sepsis, number of events (E) (human, in vivo): 3 | Sepsis, patients affected (human, in vivo): 3 (8.3) n (%) | Skin and subcutaneous tissue disorders (System Organ Class), number of events (E) (human, in vivo): 1 | Skin and subcutaneous tissue disorders (System Organ Class), patients affected (human, in vivo): 1 (2.8) n (%) | Stomatitis, number of events (E) (human, in vivo): 1 | Stomatitis, patients affected (human, in vivo): 1 (2.8) n (%) | Streptococcal bacteraemia, number of events (E) (human, in vivo): 1 | Streptococcal bacteraemia, patients affected (human, in vivo): 1 (2.8) n (%) | Supraventricular tachycardia, number of events (E) (human, in vivo): 1 | Supraventricular tachycardia, patients affected (human, in vivo): 1 (2.8) n (%) | Syncope, number of events (E) (human, in vivo): 1 | Syncope, patients affected (human, in vivo): 1 (2.8) n (%) | TEAE leading to Discontinuation (human, in vivo): 4 n (%) | Thrombocytopenia, number of events (E) (human, in vivo): 7 | Thrombocytopenia, patients affected (human, in vivo): 5 (13.9) n (%) | Toothache, number of events (E) (human, in vivo): 1 | Toothache, patients affected (human, in vivo): 1 (2.8) n (%) | Urethral haemorrhage, number of events (E) (human, in vivo): 1 | Urethral haemorrhage, patients affected (human, in vivo): 1 (2.8) n (%) | Urinary incontinence, number of events (E) (human, in vivo): 1 | Urinary incontinence, patients affected (human, in vivo): 1 (2.8) n (%) | Vascular disorders (System Organ Class), number of events (E) (human, in vivo): 3 | Vascular disorders (System Organ Class), patients affected (human, in vivo): 3 (8.3) n (%) | Viral infection, number of events (E) (human, in vivo): 1 | Viral infection, patients affected (human, in vivo): 1 (2.8) n (%) | Vomiting, number of events (E) (human, in vivo): 2 | Vomiting, patients affected (human, in vivo): 2 (5.6) n (%) | Oral pain, number of events (E) (human, in vivo, po): 1 | Oral pain, patients affected (human, in vivo, po): 1 (2.8) n (%) | Eye toxicity of grade ≥3 (in vivo): Only a single event | Retinal toxicities (in vivo): no evidence for retinal toxicities | Tolerability (in vivo): well-tolerated | Fatal SAE: Adverse event (Dose escalation 400 mg/100 mg): Neutropenic sepsis | Fatal SAE: Grade (Dose escalation 400 mg/100 mg): 5 | Fatal SAE: Relationship to Bemcentinib (Dose escalation 400 mg/100 mg): Unrelated | Fatal SAE: Adverse event (Dose escalation 400 mg/200 mg): Multi-organ failure; also recorded: Pneumonia fungal; also recorded: Cerebral haemorrhage | Fatal SAE: Grade (Dose escalation 400 mg/200 mg): 5 | Fatal SAE: Relationship to Bemcentinib (Dose escalation 400 mg/200 mg): Unrelated; also recorded: Unlikely related | Fatal SAE: Adverse event (Dose escalation 600 mg/200 mg): Pneumonia; also recorded: Sepsis | Fatal SAE: Grade (Dose escalation 600 mg/200 mg): 5 | Fatal SAE: Relationship to Bemcentinib (Dose escalation 600 mg/200 mg): Unrelated
